# Test results reported in BindingDB's records for doi:10.1016/j.bmcl.2008.08.034 (University of Illinois At Chicago, 2008).
# pIC50: −log10 of the molar value.
# Molecular target: T1, 1-deoxy-D-xylulose-5-phosphate synthase (Mycobacterium tuberculosis (strain ATCC 25618 / H37Rv), UniProt P9WNS3)
# T1 sequence (P9WNS3 whole entry): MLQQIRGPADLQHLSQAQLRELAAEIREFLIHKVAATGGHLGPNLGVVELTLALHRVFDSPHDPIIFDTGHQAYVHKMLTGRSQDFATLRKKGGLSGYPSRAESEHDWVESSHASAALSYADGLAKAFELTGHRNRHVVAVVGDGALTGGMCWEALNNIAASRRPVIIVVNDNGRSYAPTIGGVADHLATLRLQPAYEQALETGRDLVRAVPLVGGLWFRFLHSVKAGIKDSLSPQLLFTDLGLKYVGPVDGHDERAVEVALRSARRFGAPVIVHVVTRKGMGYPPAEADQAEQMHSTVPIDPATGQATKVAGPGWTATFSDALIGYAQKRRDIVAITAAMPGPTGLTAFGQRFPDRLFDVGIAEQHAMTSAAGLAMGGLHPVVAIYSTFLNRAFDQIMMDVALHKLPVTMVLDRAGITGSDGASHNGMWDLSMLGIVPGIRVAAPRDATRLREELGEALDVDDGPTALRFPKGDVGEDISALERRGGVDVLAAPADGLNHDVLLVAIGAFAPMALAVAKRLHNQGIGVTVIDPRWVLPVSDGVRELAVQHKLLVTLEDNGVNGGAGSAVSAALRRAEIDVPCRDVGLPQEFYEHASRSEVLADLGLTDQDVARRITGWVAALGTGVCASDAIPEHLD
# Experiment: Inhibition of Mycobacterium tuberculosis cloned 1-deoxy-D-xylulose-5-phosphate synthase expressed in Escherichia coli
row,Structure (SMILES),pIC50
1,Cc1nc2c(-c3ccc(Cl)cc3)c(C(F)(F)F)[nH]n2c(=O)c1Cc1ccccc1,< 3.70
2,"CCCc1c(-c2ccccc2)nc2c(-c3ccccc3)c(C)[nH]n2c1=O [2-methyl-3,5-diphenyl-6-propylpyrazolo[1,5-a]pyrimidin-7(4H)-one]",4.75
3,"Cc1cc(=O)n2[nH]c(C(F)(F)F)c(-c3ccc(Br)cc3)c2n1 [3-(4-bromophenyl)-5-methyl-2-(trifluoromethyl)pyrazolo[1,5-a]pyrimidin-7(4H)-one]",< 3.70
4,"COCc1cc(O)n2nc(C)c(-c3ccc(Cl)cc3)c2n1 [3-(4-chlorophenyl)-5-(methoxymethyl)-2-methylpyrazolo[1,5-a]pyrimidin-7(4H)-one]",< 3.70
5,"COCc1cc(=O)n2[nH]cc(-c3ccc(Cl)cc3)c2n1 [3-(4-chlorophenyl)-5-(methoxymethyl)pyrazolo[1,5-a]pyrimidin-7(4H)-one]",< 3.70
6,"Cc1cc(=O)n2[nH]cc(-c3ccc(Cl)cc3)c2n1 [3-(4-chlorophenyl)-5-methylpyrazolo[1,5-a]pyrimidin-7(4H)-one]",< 3.70
7,"O=c1cc(CCl)nc2c(-c3ccccc3)c[nH]n12 [5-(chloromethyl)-3-phenylpyrazolo[1,5-a]pyrimidin-7(4H)-one]",< 3.70
